Test results: PMC7321108, “1-Hydroxyanthraquinones Containing Aryl Substituents as Potent and Selective Anticancer Agents” (Molecules, 2020)

Columns and labels:
[1] = test system: SNB-19 cells; test: DNA synthesis investigation (BrdU/PI flow cytometry), SNB-19; format: cell-based, human; conditions: SNB-19, treated at GI50 concentration, 24 h, BrdU 30 min
Experimental: (§4) Cell cycle analysis was performed by Flow Cytometry using BrdU and PI staining [63]. For this experiment cells were seeded in 6-well plates (30,000 per plate) and incubate for adhesion for 24 h. […] For the next step the BrdU stock was added at a final concentration of 30 µM and cells were incubated for 30 min. Cells were washed with PBS, harvested using trypsine and resuspended at 0.3 mL of PBS. Permeabilization of cell membrane was performed as follows: 0.7 mL of ice-cold 100% EtOH was added into each sample, mixed gently and incubate at 4 °C for 1 h. Cells were pelleted and supernatant was removed completely. Then 0.5 mL of 2 N HCl/0.5% Triton X-100 was added and samples were incubated 30 min at room temperature. Cells were pelleted again, supernatant was removed. The pellet was resuspended in 0.5 mL of 0.1 M sodium tetraborate for 2 min and cells were pelleted again, washed with 150 µL of PBS/1% BSA and resuspended in 50 µM 0.5% Tween 20/1% BSA/PBS. […] After that the samples were resuspended in 0.5 mL of PBS containing 10 mg/mL RNAse A and 20 mg/mL PI. Samples were incubated at room temperature for 30 min and analyzed immediately or store at 4 °C. CytoFLEX flow cytometer (Beckman Coulter) was used for analysis. The results are presented as a percentage of cell population standing in DNA synthesis process.

[2] = test system: SNB-19 cells; test: Cell cycle analysis by flow cytometry (Hoechst 33342), SNB-19; format: cell-based, human; conditions: SNB-19, treated at GI50 concentration, 24 h
Experimental: Due to the fact that the implementation of the antitumor potential of the currently existing antitumor agents is carried out by acting on various biological targets, at the next stage we performed the cell cycle analysis and DNA synthesis. Cell cycle analysis of 1-hydroxy-4-phenyl-9,10-anthraquinone 13, 1-hydroxy-4-(2,3-dimethoxyphenyl)-9,10- anthraquinone 16, 1-hydroxy-4-(furan-3-yl)-9,10-anthraquinone 23 and 1-hydroxy- 2-(2,3-dimethoxyphenyl)-9,10-anthraquinone 28 against SNB-19 cells for 24 h produced interesting results. After examining the data for compounds 13 and 16 (Table 3, Figure 4C,D), good number of cells are distributed in S phase, i.e., initiated DNA replication mechanism and also in G0/G1 phase, i.e., initial phase of cell cycle. G1 and G2 are the growth phases in cell cycle analysis, whereas S phase is a synthetic phase wherein DNA replication and DNA synthesis take place. The 2-aryl substituted compound 28 initiated the G0/G1 phase in analogy with doxorubicin and mitomycin. […] Further, compounds play a vital role in controlling the regulation of Sub-G1 and G2/M phases. Some difference in the mechanism of operation of 4-aryl substituted 13,16 and 2-aryl substituted 9,10-anthraquinones 28 has been observed during the progression of cell cycle like: S phase was highly disturbed by 13; G0/G1 phase was highly disturbed by 28. […] This observation can be explained by the influence on the cell repair systems that respond to the intercalation of compounds in DNA. […] Further, mitoxantrone promotes the arrest of S phase of cell cycle.
(§1) For cell cycle analysis cells were seeded in 6-well plates (30,000 per plate) and incubate for adhesion for 24 h. […] Cells were washed with PBS twice, harvested, pelleted and resuspended in 0.5 mL of PBS. For staining the Hoechst 33342 Ready Flow Reagent (Invitrogen) was used according to the instruction. CytoFLEX flow cytometer (Beckman Coulter) was used for analysis. The results are presented as a percentage of cell population standing in different stages of the cell cycle.

[3] = test system: DU-145 cells; test: Cell cycle analysis by flow cytometry (Hoechst 33342), DU-145; format: cell-based, human; conditions: DU-145, treated at GI50 concentration, 24 h
Experimental: We have carried out flow cytometric study of compounds 13, 16 and the isomeric compound 25 (Table 4, Figure 4G,H). Concentrations of 16 and 25 were taken as 5.4 and 14.5 μM, respectively, as per cytotoxic studies (Table 1). After examining the data for 13 (Figure 4G, Table 4), a good number of cells are arrested in Sub-G1, G0/G1 and S phase. Biosynthetic activity is very high during Sub-G1 phase; this is probably achieved by enhancing of apoptosis. The isomeric molecule 25 arrest G0/G1 and S phases, i.e., affecting the DNA synthesis/replication mechanism. Similarly, for 25 a different pattern is observed, i.e., variations at S and G2/M phases were observed, in comparison to the control. […] Some difference in the mechanism of operation of 13 and 25 has been observed during the progression of cell cycle like: Sub-G1 phase was highly disturbed by 13 and S and G0/G1 phases were highly disturbed by 25.
as §1

[4] = test system: DU-145 cells; test: DNA synthesis investigation (BrdU/PI flow cytometry), DU-145; format: cell-based, human; conditions: DU-145, treated at GI50 concentration, 24 h, BrdU 30 min
Experimental: as §4

[5] = test system: U-87MG glioblastoma cells; test: MTT cytotoxicity assay, U-87MG; format: cell-based; conditions: Homo sapiens, 72 h incubation, mean ± SEM of three experiments, read-out: Cytotoxicity (GI50) against U-87MG
Experimental: (§2) The cytotoxicity of the synthesized series of 4-substituted 5, 13–17, 22, 23, 2-substituted 25–30 and 2,4-disubstituted 1-hydroxy-9,10-anthraquinones 33–38, 40–45 was evaluated against a panel of seven different human cancer cell lines (glioblastoma cancer cells, human prostate cancer cells, T-cellular human leucosis, breast cancer cells) and also a normal cell line of hTERT-immortalized lung fibroblasts, using conventional MTT assay. Doxorubicin (DOX) is clinically used to treat cancer as drug in world and have a very wide antitumor spectrum. That we use them as positive control compounds. The cytotoxicity was determined by measuring the concentration inhibiting human tumor cell viability by 50% (GI50).
(§3) The human cancer cells of the glioblastoma (U-87MG, SNB-19, T98G), prostate cancer cell line (LNCAP, DU-145), the cells of T-cellular human leucosis (MT-4) and human breast cancer cells (MDA-MB-231) were used in this study. The cells were cultured in the RPMI-1640 medium that contained 10% embryonic calf serum, L-glutamine (2 mmol/L), gentamicin ([…]) and lincomycin (30 mkg/mL) in a CO2 incubator at 37 °C. The tested compounds were dissolved in DMSO and added to the cellular culture at the required concentrations. Three wells were used for each concentration. The cells which were incubated without the compounds were used as a control. Cells were placed on 96-well microliter plates and cultivated at 37 °C in 5% CO2/95% air for 72 h. The cell viability was assessed through an MTT [3-(4,5-dimethylthiazol-2-yl)-[…]-2H-tetrazolium bromide] conversion assay. A total of 1% MTT was added to each well. Four hours later, DMSO was added and mixed for 15 min. Optical density (D) of the samples was measured on a BioRad 680 multi-well spectrophotometer (USA) at the wavelength of 450 nm. The 50% cytotoxic dose GI50) of each compound (i.e., the compound concentration that causes the death of 50% of cells in a culture, or decreases the optical density twice as compared to the control wells) was calculated from the data obtained. Statistical processing of the results was performed using the Microsoft Excel-2007, […] 6.0 and GraphPad Prism 5.0 programs. The results are given as an average value ± a deviation from the average (mean ± standard error of the mean (SEM)). Reliability of differences (p) was estimated using the Student t test. The differences with p < 0.05 were considered as reliable. The experimental results are given as the data average values obtained from three independently conducted experiments.

[6] = test system: MT-4 cells of T-cellular human leucosis; test: MTT cytotoxicity assay, MT-4; format: cell-based; conditions: MT4, 72 h incubation, mean ± SEM of three experiments, read-out: Cytotoxicity (GI50) against MT-4
Experimental: as §2, §3

[7] = test system: MDA-MB-231 breast cancer cells; test: MTT cytotoxicity assay, MDA-MB-231; format: cell-based; conditions: Homo sapiens, 72 h incubation, mean ± SEM of three experiments, read-out: Cytotoxicity (GI50) against MDA-MB-231
Experimental: as §2, §3

[8] = test system: LNCAP prostate cancer cells; test: MTT cytotoxicity assay, LNCAP; format: cell-based, human; conditions: Homo sapiens, LNCaP, 72 h, 72 h incubation, mean ± SEM of three experiments, read-out: Cytotoxicity (GI50) against LNCAP
Experimental: as §2, §3

[9] = test system: DU-145 prostate cancer cells; test: MTT cytotoxicity assay, DU-145; format: cell-based, human; conditions: Homo sapiens, DU-145, 72 h, 72 h incubation, mean ± SEM of three experiments, read-out: Cytotoxicity (GI50) against DU-145
Experimental: as §2, §3

[10] = MTT cytotoxicity assay, normal hTERT-immortalized lung fibroblasts; format: cell-based; conditions: human, hTERT-immortalized lung fibroblasts (normal cell line), 72 h incubation, mean ± SEM of three experiments, read-out: Cytotoxicity (GI50) against hTERT Lung Fibroblasts
Experimental: as §2, §3

[11] = test system: SNB-19 glioblastoma cells; test: MTT cytotoxicity assay, SNB-19; format: cell-based; conditions: Homo sapiens, 72 h incubation, mean ± SEM of three experiments, read-out: Cytotoxicity (GI50) against SNB-19
Experimental: as §2, §3

[12] = test system: T98G glioblastoma cells; test: MTT cytotoxicity assay, T98G; format: cell-based; conditions: Homo sapiens, 72 h incubation, mean ± SEM of three experiments, read-out: Cytotoxicity (GI50) against T98G
Experimental: as §2, §3

[13] = test system: pUC19 DNA plasmid; test: Gel retardation (electrophoretic mobility shift) assay; format: binding; conditions: 0.5 µg pUC19 plasmid, 0.025 µM test compound, room temperature 1 h, agarose gel 60 V 4 h
Experimental: The interaction of compounds 13, 15, 16, 23, 25 27, 28, 35, 40 and 44 with DNA was experimentally confirmed by study of the electrophoretic mobility. For this the gel retardation assay was performed. Doxorubicin in different concentration was used as a positive control. In order to avoid destruction of the possible complex of DNA with compounds, the electrophoresis was performed at low voltage. The results are presented at Figure 3.
To study the interaction between test compounds and DNA the electrophoretic mobility shift assay was performed. 0.5 µg of pUC19 plasmid was incubated with 0.025 µM of test compounds at room temperature for 1 h. After that the electrophoresis was performed in agarose gel (1/2%) in TBE buffer (60 V, 4 h). For visualization the gel was staining with ethidium bromide and analyzed with Bio-Rad gel documentation system.

SMILES	Population (% Cell Distribution) DNA Synthesis [1]	Population (% Cell Distribution) G0/G1 [2]	Population (% Cell Distribution) G2/M [2]	Population (% Cell Distribution) S [2]	Population (% Cell Distribution) Sub-G1 [2]	Population (% Cell Distribution) Super-G2 [2]	Population (% Cell Distribution) G0/G1 [3]	Population (% Cell Distribution) G2/M [3]	Population (% Cell Distribution) S [3]	Population (% Cell Distribution) Sub-G1 [3]	Population (% Cell Distribution) Super-G2 [3]	GI50 [5]	melting point	GI50 [6]	GI50 [7]	GI50 [8]	GI50 [9]	GI50 at 72 h [10]	GI50 [11]	GI50 [12]	further results
CO[C@@]12[C@H](COC(N)=O)C3=C(C(=O)C(C)=C(N)C3=O)N1C[C@@H]1N[C@@H]12 [Mitomycin C, reference compound]	7.44%	63.6%	4.1%	25.2%	0.0%	7.0%	50.3%	16.3%	13.2%	0.1%	20.2%										Population (% Cell Distribution) DNA Synthesis [4]: 5.74%
COc1cccc(-c2ccc3c(c2O)C(=O)c2ccccc2C3=O)c1OC [Compound 28, 2-(2,3-Dimethoxyphenyl)-1-hydroxyanthracene-9,10-dione]	16.83%	54.5%	13.7%	22.4%	3.6%	5.8%						> 100 µM	176.3 °C (dec.)	18.2 ± 0.86 µM	42.4 ± 3.32 µM	23.1 ± 1.24 µM	> 100 µM	51.3 ± 3.18 µM	5.77 ± 0.23 µM	32.6 ± 1.68 µM	
O=C1c2ccccc2C(=O)c2c(-c3ccoc3)ccc(O)c21 [Compound 23, 1-(Furan-3-yl)-4-hydroxyanthracene-9,10-dione]	22.71%	34.6%	17.3%	32.5%	3.1%	11.8%						58.7 ± 2.48 µM	190 °C (dec.)	56.1 ± 1.96 µM	18.2 ± 1.27 µM	22.2 ± 2.12 µM	15.4 ± 0.96 µM	69.5 ± 1.52 µM	37 ± 1.41 µM	34.8 ± 1.06 µM	Retardation of plasmid DNA (electrophoretic mobility) [13]: cause a retardation of plasmid DNA
O=C1c2ccccc2C(=O)c2c1ccc(-c1ccccc1)c2O [Compound 25, 1-Hydroxy-2-phenylanthracene-9,10-dione]							32.3%	7.4%	32.4%	25.9%	2.0%	> 100 µM	174.1 °C (dec.)	> 100 µM	16.5 ± 0.88 µM	32.1 ± 8.55 µM	14.5 ± 0.73 µM	44.6 ± 2.46 µM	6.8 ± 1.19 µM	21.5 ± 0.92 µM	Population (% Cell Distribution) DNA Synthesis [4]: 20.27%
